The subject of this data set is E. histolytica mediated cytotoxicity on HT-29 cell layers. It counts as cell-based, Entamoeba histolytica. The settings on record: for protection of the cell layer (in words): physiologically relevant concentrations of individual HMO. As to the method: FIG. 2 HMO prevent E. histolytica mediated cytotoxicity in in vitro co-culture with enterocytes. Representative images of methylene blue stained HT-29 cell layers as such (A, left) or cocultured with HM-1 trophozoites in the absence (A, middle) or presence (A, right) of 10 mg/ml HMO. Dose response curve with different concentrations of HMO (B). The O.D 660 nm of methyleneblue cell layers was used as a measure for cytotoxicity. The cytoprotective effect of HMO was calculated as the percent ‘cell rescue’ compared to the untreated coculture (0%). Results are means SEM of 4 independent experiments. Cocultures were incubated with different glycans and cytotoxicity was determined as described above (C). […] HMO rescues cell layers when added to existing cocultures (D). HT-29 cells were cocultured with HM-1 and 20 mg/ml HMO was added at the indicated times of coculture. Cocultures were stopped and cytotoxicity was determined after 2 hrs. Control cell layers were cocultured for 2 hrs in the absence of HMO and were considered to have 0% cell rescue.
FIG. 3 Protection of the HT-29 monolayer by individual HMO. Cell rescue in co-culture treated with physiologically relevant concentrations of individual HMO (A). Symbols represent structures of individual HMO. Cell survival in the presence of equimolar concentrations of LNT, LNFP1 and a mixture of LNFP1, LNFP2, and LNFP3. […] Cytotoxicity assay with 10 mM 2′FL before and after fucosidase digestion (C). 2′FL left untreated or incubated with alpha1, 2 fucosidase was used in cytotoxicity assay. As controls, we used enzyme reaction buffer with inactivated fucosidase (control); equimolar concentrations (10 mM) of Lac, Fuc, or Fuc and Lac combined. Data from cytotoxicity assays are presented as % cell rescue compared to untreated cocultures (0%). Error bars are SEM, stars indicate statistical significance compared to control unless indicated by bars.
FIG. 4 GOS reduces cytotoxicity of trophozoites independent of its lactose content. Cell rescue in cocultures treated with increasing concentrations of GOS (triangles) or its corresponding lactose content (circles)(A). Cytotoxicity assay with GOS fractions (B). Higher numbered (eluted later) fractions contain lower molecular weight carbohydrates. The lactose content of fractions 11 and 12 is indicated above the respective bars. HPLC chromatogram of the original GOS preparation (20% lactose) (upper panel) and of the lactose free GOS (<0.5%) (C). Cytotoxicity assay with increasing concentrations of lactose-free GOS (triangles) and Lac-containing GOS (circles)(D).
HMO prevent enterocyte cytotoxicity by E. histolytica in in vitro cocultures. Previous studies have shown reduced Entamoeba attachment and cytotoxicity in the presence of selected carbohydrates (Cano-Mancera and Lopez-Revilla, 1987; Ravdin and Guerrant, 1981; Bracha and Mirelman, 1984). We tested the effect of HMO on Entamoeba induced cytotoxicity in in vitro cocultures with HT-29 cell layers and calculated the % cell rescue (FIG. 2A). […] The cell protective effect of 20 mg/ml HMO is similar to the effect of 10 mM lactose and better than the effect of 10 mM galactose (FIG. 2C). […] Treatment with 20 mg/ml after 90 min of cocultures could still rescue 31±4.7% of the cell layer.

Like-named read-outs stand apart in the source and are kept apart here.

3-sialyl-lactose [3′SL]: the “protection of the cell layer (in words)” value is “failed to prevent monolayer destruction”.
`CC(=O)N[C@H]1[C@H]([C@H](O)[C@H](O)CO)O[C@@](OC[C@H]2O[C@@H](O[C@H]3[C@H](O)[C@@H](O)C(O)O[C@@H]3CO)[C@H](O)[C@@H](O)[C@H]2O)(C(=O)O)C[C@@H]1O` (stereo partly drawn) [6′SL, 6-sialyl-lactose]: the “protection of the cell layer (in words)” value was “failed to prevent monolayer destruction”.
For the molecule `CC(=O)N[C@H]1[C@H](O[C@H]2[C@@H](O)[C@@H](CO)O[C@@H](O[C@H]3[C@H](O)[C@@H](O)C(O)O[C@@H]3CO)[C@@H]2O)O[C@H](CO)[C@@H](O)[C@@H]1O[C@@H]1O[C@H](CO)[C@H](O)[C@H](O)[C@H]1O[C@@H]1O[C@@H](C)[C@@H](O)[C@@H](O)[C@@H]1O` (stereo partly drawn) [LNFP1], the “rescue of enterocytes (in words)” value (5 mg/ml) was “no effect”. Besides, the cell rescue (10 mM) came out at 16.9±1.7%.
Regarding `CC(=O)N[C@H]1[C@H](O[C@H]2[C@@H](O)[C@@H](CO)O[C@@H](O[C@H]3[C@H](O)[C@@H](O)C(O)O[C@@H]3CO)[C@@H]2O)O[C@H](CO)[C@@H](O)[C@@H]1O[C@@H]1O[C@H](CO)[C@H](O)[C@H](O)[C@H]1O` (stereo partly drawn) [LNT, Lacto-N-tetraose], the “protection of the cell layer (in words)” value is “significantly protected the cell layer”. The cell rescue (5 mg/ml) is reported as 49.5±9.2%. The molecule further showed a cell rescue (10 mM) of 79±8.3%.
Consider `OC[C@H]1O[C@@H](O[C@H]2[C@H](O)[C@@H](O)C(O)O[C@@H]2CO)[C@H](O)[C@@H](O)[C@H]1O` (stereo partly drawn) [Lactose, lactose], for which, for the setting “10 mM”, the “prevention of cytotoxicity (in words)” value is reported as “significantly prevent cytotoxicity”. For the same molecule, the “effect on cytotoxicity compared with lactose containing GOS (in words)” value (Lac concentrations present in each GOS sample) is on record as “significantly lower”.
Consider `C[C@H](O)[C@@H](O)[C@@H](O)[C@H](O)C=O` [fucose], for which the “prevention of cytotoxicity (in words)” value reads like this: (10 mM) “no significant effect”; (10 mM, listed as Fucose) “do not prevent cytotoxicity”.
On to `O=C[C@H](O)[C@@H](O)[C@@H](O)[C@H](O)CO` [galactose], for which the “prevention of cytotoxicity (in words)” value (10 mM) is “no significant effect”.
